In series [1] the test system is aorta pieces of rat. Put plainly: Inhibition of capillary formation in rat aorta model (aorta pieces cultured in collagen gel). It counts as cell-based. The note with it: 7th day from addition of sample. The protocol: In a method of screening the antiangiogenic effect, the degree of inhibition to the formation of lumens observed when an aortic fragment of a rat is cultured in a collagen gel was selected as an indicator (Nicosia R. F., Lab. Invest., 63, 115, 1990). Also, for the purpose of analyzing the mechanism of action of the antiangiogenic effect of the resulting compound, measurements were made concerning the effect of inhibiting the growth of endothelial cells by using endothelial cells derived from the human umbilical cord vein and the effect of inhibiting the expression of an adhesion molecules on endothelial cells.
The antiangiogenic potency was evaluated by the inhibition of capillary formation in rat aorta model in which aorta pieces of rat were cultured in collagen gel. That is, the aorta excised from male rat of Sprague-Dawley strain (8-12 weeks age) was washed with a Hanks' solution so that fat tissues around there were removed minutely. The aorta was incised to prepare pieces of 2 mm square and they were allowed to stand in a 24-well plate holding the endothelial cells upside. Then, 500 μl of neutralized Type I collagen (Cell Matrix Type I-A; manufactured by Nitta Gelatin) were poured over each well and allowed to stand at room temperature for about 20 minutes in a clean bench to solidify the gel. After gelling, 500 μl of MCDB 131 medium (manufactured by Chlorella Kogyo) were added thereto followed by incubating in a Co2 incubator (5% CO2) at 37° C. On the next day, the culture medium was exchanged with 500 μl of MCDB 131 medium containing the sample and the incubation was continued. And, at the stage of the 7th day from the addition of the sample, numbers of capillaries formed around the aorta were counted. The IC50 value of each sample is defined as a concentration that the number of blood capillaries is 50% of that observed when no sample was added.

The test system of series [2] is Endothelial cells derived from human umbilical vein (HUVEC). The experiment in a line: Inhibitory effect of growth of endothelial cells (MTT method). It counts as cell-based. As to conditions: three days. How it is done:
Endothelial cells derived from human umbilical vein (HUVEC; manufactured by Sanko Junyaku) incubated in an EGM medium (manufactured by Sanko Junyaku) were adjusted to 1×10^4 cells/ml and each 100 μl were separately placed on a 96-well plate. After incubating overnight, 100 μl of medium containing sample were added thereto followed by incubating for three days. The cell numbers at that time were measured by MTT method. That is, 50 μl of PBS solution containing 0.33% of 3-(4,5-dimethylthiazol-2-yl)-2,5-diphenyltetrazolium bromide (MTT) was added thereto and incubation was continued for further 3-4 hours. After the supernatant liquid of the culture was removed, 100 μl of DMSO was added to dissolve a formazane which was formed in the cells and the absorbance at the wave length of 460 nm was measured by use of plate reader. The IC50 value is defined as a concentration that the absorbance was 50% of that observed when no sample was added.

Series [3] is described as follows: Safety of VD1207 analogues, intraperitoneal administration over 4 days. It counts as in vivo. Details: key to Blood (WBC) / Blood (PLAT) / Biochemistry (UN) / Biochemistry (GPT) / Weight (liver) / Weight (kidney) / Weight (lung) / Weight (spleen) / Body weight / Blood (RBC): —: “-” indicates no abnormality; “↑” and “↓” indicate an increase and a decrease, respectively; “↑” and “↓” indicate an increase and a decrease, respectively. How it is done:
Each of VD1207B, C, D, E, F and G2 was continuously administered intraperitoneally at each dose of 1 mg/kg and 2 mg/kg over 4 days to examine the safety of VD1207 analogues.

Series [4] is described as follows: Solubility (analysis data). It is filed as physicochemical.
The test system of series [5] is VCAM-1. Put plainly: Inhibition of TNFα-induced expression of adhesion molecule VCAM-1 on endothelial cells. The note with it: HUVEC, TNFα 1 ng/ml, 4 hours. It counts as cell-based, human. The protocol:
(§1) Endothelial cells derived from human umbilical vein (HUVEC) were cultured on a 96-well plate until they were fallen in a confluent state. The culture broth was removed. After 150 μl of a new culture broth was added to each well, 20 μl of a sample solution was added thereto. After 15 minutes, 30 μl of TNFα was added such that the final concentration became 1 ng/ml and it was incubated at 37° C. for 4 hours in a 5% CO2 incubator. Next, the culture broth was removed and the cells were washed twice with a phosphate buffer (PBS). Further, a PBS solution containing 0.025% glutaraldehyde was added and the well was allowed to stand at room temperature for 6 minutes to fix the cells. After the cells were immobilized, they were washed twice with 200 μl of phosphate buffer (PBSA) containing 0.25% BSA. Thereafter 100 μl of a PBSA solution containing 1 μg/ml of mouse anti-human VCAM-1 (R&D systems) or a mouse anti-human E-selectin antibody (R&D systems) was added to each well. The well was allowed to stand at room temperature for 30 minutes and then the cells were again washed. A PBSA solution containing 100 μl of peroxidase-conjugated goat anti-mouse antibody (Cosmo Bio Co., Ltd.) was added to the well. Then the well was allowed to stand at room temperature for 30 minutes and thereafter the cells were washed. In succession, 100 μl of 3,3*,5,5*-tetramethylbenzyidine (TMB) substrate solution was added to develop a color. Next, the coloring was stopped by 100 μl of 1M phosphoric acid to measure the absorbance at 450 nm.

In series [6] the test system is E-selectin. The experiment in a line: Inhibition of TNFα-induced expression of adhesion molecule E-selectin on endothelial cells. It is filed as cell-based, human. The note with it: HUVEC, TNFα 1 ng/ml, 4 hours. The protocol: as §1
[7] abbreviates: 2 mg/kg i.p. 4 days, listed as F.

As for `CCC1OC12C(O)CC(C(CC(C)C)C(=O)c1cc(CC(C)C)c(O)c(C=O)c1O)OC2O` (stereo not drawn) [VD1207 G2], the “IC50 (number of blood capillaries 50% of that without sample)” value in series [1] worked out at 0.034 µg/mL. Also, the “IC50 (growth of endothelial cells, absorbance 50% of no sample)” value in series [2] amounted to 0.07 µg/mL. For the same compound, in series [3] (1 mg/kg i.p. 4 days), the “Biochemistry (GPT)” value is “—”, the “Biochemistry (UN)” value is “—”, the “Blood (PLAT)” value was “—” and the “Blood (RBC)” value is “—”. For the same compound, in series [3] (1 mg/kg i.p. 4 days), the “Blood (WBC)” value was “—”, the Body weight entry is “—”, the “Weight (kidney)” value is recorded as “—” and the “Weight (liver)” value is listed as “↑”. Further, in series [3] (1 mg/kg i.p. 4 days), the “Weight (lung)” value is “—” and the “Weight (spleen)” value is recorded as “—”. Moreover, in series [3] (2 mg/kg i.p. 4 days), the “Biochemistry (GPT)” value is listed as “—”, the “Biochemistry (UN)” value was “—”, the “Blood (PLAT)” value was “—” and the “Blood (RBC)” value is listed as “—”. In series [3] (2 mg/kg i.p. 4 days), the “Blood (WBC)” value is recorded as “↓”, the Body weight entry is “—”, the “Weight (kidney)” value is on record as “—” and the “Weight (liver)” value is “↑”. Besides, in series [3] (2 mg/kg i.p. 4 days), the “Weight (lung)” value is on record as “—” and the “Weight (spleen)” value is “—”. For the same compound, in series [4], the “Solubility in ethyl acetate, chloroform and dimethyl sulfoxide” value (“Solubility in ethyl acetate” for short) is recorded as “soluble”; the “Solubility in neutral water” value is “insoluble”.

As for `CCC1OC12C(O)CC(C(CC(C)C)C(=O)c1cc(C(OC)C(C)C)c(O)c(C=O)c1O)OC2O` (single isomer, unassigned) [VD1207 F], in series [1] (listed as F), the “IC50 (number of blood capillaries 50% of that without sample)” value is 0.067 µg/mL. The “IC50 (growth of endothelial cells, absorbance 50% of no sample)” value in series [2] (listed as F) worked out at 0.06 µg/mL. In series [5] (listed as F), the “VCAM-1 (IC50 of expression)” value is below 0.63 µg/mL. Further, the “E-select (IC50 of expression)” value in series [6] (listed as F) stood at 0.84 µg/mL. Also, in series [3] (1 mg/kg and 2 mg/kg i.p. 4 days), the “Weight of each of the liver, kidney and lung (autoptic findings)” value was “increase”. Further, in series [3] (1 mg/kg i.p. 4 days), the “Blood (WBC)” value was “—” and the “Weight (lung)” value was “—”. For the same compound, the “Weight (kidney)” value in series [3] (1 mg/kg i.p. 4 days, listed as F) is “↑”. For the same compound, in series [3] (2 mg/kg i.p. 4 days), the “Biochemistry (GPT)” value is recorded as “—”, the “Biochemistry (UN)” value is recorded as “—”, the “Blood (PLAT)” value is listed as “—” and the “Blood (RBC)” value was “—”. For the same compound, in series [3] (2 mg/kg i.p. 4 days), the “Blood (WBC)” value is given as “↓”, the Body weight result was “—”, the “Weight (liver)” value is reported as “↑” and the “Weight (spleen)” value is listed as “—”. In series [3] (setting [7]), the “Weight (kidney)” value is recorded as “↑” and the “Weight (lung)” value was “↑”. In addition, in series [4], the “Solubility in ethyl acetate” value is reported as “soluble”; the “Solubility in neutral water” value is recorded as “insoluble”.

For `CCCC(C(=O)c1cc(CC(C)C)c(O)c(C=O)c1O)C1CC(O)C2(OC2CC)C(O)O1` (stereo not drawn) [VD1207 D], the “IC50 (number of blood capillaries 50% of that without sample)” value in series [1] was 0.019 µg/mL. Also, the “IC50 (growth of endothelial cells, absorbance 50% of no sample)” value in series [2] was 0.18 µg/mL. Besides, the “VCAM-1 (IC50 of expression)” value in series [5] was 1.11 µg/mL. In series [6], the “E-select (IC50 of expression)” value is 1.40 µg/mL. Further, in series [3] (1 mg/kg i.p. 4 days), the “Biochemistry (GPT)” value is reported as “—”, the “Biochemistry (UN)” value is recorded as “—”, the “Blood (PLAT)” value is listed as “—” and the “Blood (RBC)” value is “—”. In addition, in series [3] (1 mg/kg i.p. 4 days), the “Blood (WBC)” value is “—”, the Body weight entry was “—”, the “Weight (kidney)” value is “—” and the “Weight (liver)” value is “↑”. For the same compound, in series [3] (1 mg/kg i.p. 4 days), the “Weight (lung)” value is on record as “—” and the “Weight (spleen)” value is “—”. For the same compound, in series [3] (2 mg/kg i.p. 4 days), the “Biochemistry (GPT)” value was “—”, the “Biochemistry (UN)” value was “—”, the “Blood (PLAT)” value is recorded as “—” and the “Blood (RBC)” value is recorded as “—”. In addition, in series [3] (2 mg/kg i.p. 4 days), the “Blood (WBC)” value is reported as “—”, the Body weight result was “—”, the “Weight (kidney)” value is given as “—” and the “Weight (liver)” value is “↑”. Moreover, in series [3] (2 mg/kg i.p. 4 days), the “Weight (lung)” value is on record as “—” and the “Weight (spleen)” value is “—”. Besides, in series [4], the “Solubility in ethyl acetate” value is reported as “soluble”; the “Solubility in neutral water” value is on record as “insoluble”.

Regarding `CCCC(C(=O)c1cc(CC(C)C)c(O)c(C(C)=O)c1O)C1CC(O)C2(OC2CC)C(O)O1` (stereo not drawn) [VD1207 H], the “IC50 (number of blood capillaries 50% of that without sample)” value in series [1] worked out at 0.38 µg/mL. For the same compound, in series [2], the “IC50 (growth of endothelial cells, absorbance 50% of no sample)” value was 0.52 µg/mL. In addition, in series [5], the “VCAM-1 (IC50 of expression)” value is 1.06 µg/mL. In series [6], the “E-select (IC50 of expression)” value was 2.48 µg/mL. In series [4], the “Solubility in ethyl acetate” value is recorded as “soluble”; the “Solubility in neutral water” value was “insoluble”.

Regarding `CCC1OC12C(O)CC(C(CC(C)C)C(=O)c1cc(C(=O)C(C)C)c(O)cc1O)OC2O` (single isomer, unassigned) [VD1207 A1], the “IC50 (growth of endothelial cells, absorbance 50% of no sample)” value in series [2] (listed as A1) was determined as 17.6 µg/mL. Moreover, in series [4], the “Solubility in ethyl acetate” value is “soluble”; the “Solubility in neutral water” value is “insoluble”.

As to `CCCC(C(=O)c1cc(CC(C)C)c(O)c(C=O)c1O)C1CC(O)C2(OC2CCC)C(O)O1` (stereo not drawn) [VD1207 G1], the “IC50 (number of blood capillaries 50% of that without sample)” value in series [1] stood at 0.070 µg/mL. Moreover, the “IC50 (growth of endothelial cells, absorbance 50% of no sample)” value in series [2] amounted to 0.11 µg/mL. For the same compound, in series [4], the “Solubility in ethyl acetate” value is reported as “soluble”; the “Solubility in neutral water” value is listed as “insoluble”.

For `CCC1OC12C(O)CC(C(CC(C)C)C(=O)c1cc(C(=O)C(C)C)c(O)cc1O)OC2O` (single isomer, unassigned) [VD1207 A2], the “IC50 (number of blood capillaries 50% of that without sample)” value in series [1] is 1 µg/mL. Besides, the “IC50 (growth of endothelial cells, absorbance 50% of no sample)” value in series [2] (listed as A2) is 18.7 µg/mL. In series [4], the “Solubility in ethyl acetate” value was “soluble”; the “Solubility in neutral water” value is on record as “insoluble”.

Source of the values: US6645996B1, “Physiologically active substances” (Mercian Corporation and Eisai Co., Ltd., priority 1998, dated 2003).
